Columns and labels:
[1] = Stability of the prodrug on incubation in enzyme-free buffer; assay type: physicochemical; details: Phosphat-Puffer pH 5, 37 °C, without enzyme, over the same period (ca. 54 h)
Procedure: (§1) Spaltung von 14-O-α-D-Galacto-hexo-pyranosyl-doxorubicin (Verbindung 10) durch Human-Plazenta-α-Galactosidase A 0.5 mg der Ausgangsverbindung wurden in 0.5 ml Phosphat-Puffer, pH 5, enthaltend 0.03 U/ml der aus Human-Plazenta isolierten α-Galactosidase A gelöst und bei 37 °C im Dunklen inkubiert. Nach verschiedenen Inkubationszeiten wurden Proben des Inkubationsansatzes entnommen und direkt mittels Hochdruckflüssigkeitschromatographie analysiert (Säule: Nucleosil 100 (RP 18, 5 µm Teilchendurchmesser, 125 x 4.6 mm; Mobile Phase: Gradient aus Lösung A und B: 0 min - 20% A, 10 min - 30% A, 15 min - 30% A, Lösung A = 100% Acetonitril, Lösung B = 0.02 m Phosphat-Puffer pH 3.0; Flußrate: 1 ml/min; Detektion: Fluoreszenz, Ex 495 nm, Em 560 nm). Die Retentionszeit der Ausgangsverbindung betrug unter diesen Chromatographiebedingungen 9.0 min. Die während der Inkubation entstehende Verbindung wies eine mit Adriamycin identische Retentionszeit von 12.6 min auf.
(§2) Die Halbwertszeit der Spaltung betrug unter dem beschriebenen Bedingungen ca. 54 h (extrapolierter Wert). Bei der Inkubation der Ausgangsverbindung in enzymfreier Pufferlösung blieb die Verbindung über diesen Zeitraum stabil.

[2] = molecular target: T1, Human-Plazenta-α-Galactosidase A (Homo sapiens, UniProt P06280); test: Cleavage of the prodrug by human placenta α-galactosidase A (HPLC analysis); assay type: biochemical; details: placenta alpha-galactosidase a, 0.03 U/ml α-Galactosidase A, Phosphat-Puffer pH 5, 37 °C, dark, extrapolated value, read-out: Halbwertszeit der Spaltung (converted)
T1 construct: der aus Human-Plazenta isolierten α-Galactosidase A; from tissue; host or cells: human placenta
T1 sequence (P06280 32-429): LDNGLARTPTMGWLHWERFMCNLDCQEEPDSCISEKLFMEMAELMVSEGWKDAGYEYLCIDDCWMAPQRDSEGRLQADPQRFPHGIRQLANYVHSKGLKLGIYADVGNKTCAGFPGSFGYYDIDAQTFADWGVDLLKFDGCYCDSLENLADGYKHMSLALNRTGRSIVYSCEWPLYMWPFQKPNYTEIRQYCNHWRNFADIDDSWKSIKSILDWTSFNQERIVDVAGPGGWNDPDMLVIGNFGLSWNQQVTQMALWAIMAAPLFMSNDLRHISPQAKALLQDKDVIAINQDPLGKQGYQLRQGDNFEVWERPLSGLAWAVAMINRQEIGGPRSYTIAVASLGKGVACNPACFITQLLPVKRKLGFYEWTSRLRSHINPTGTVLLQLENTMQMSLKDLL
Procedure: as §1, §2

[3] = molecular target: T2, Kaffeebohnen-α-Galactosidase (Coffea arabica, UniProt Q42656); test: Cleavage of the prodrug by coffee bean α-galactosidase (HPLC analysis); assay type: biochemical; details: coffee bean alpha-galactosidase; 0.03 U/ml Kaffeebohnen-α-Galactosidase (Sigma), Phosphat-Puffer pH 5, 37 °C; read-out: Halbwertszeit der Spaltung
T2 construct: purchased Sigma
T2 sequence (Q42656 16-378): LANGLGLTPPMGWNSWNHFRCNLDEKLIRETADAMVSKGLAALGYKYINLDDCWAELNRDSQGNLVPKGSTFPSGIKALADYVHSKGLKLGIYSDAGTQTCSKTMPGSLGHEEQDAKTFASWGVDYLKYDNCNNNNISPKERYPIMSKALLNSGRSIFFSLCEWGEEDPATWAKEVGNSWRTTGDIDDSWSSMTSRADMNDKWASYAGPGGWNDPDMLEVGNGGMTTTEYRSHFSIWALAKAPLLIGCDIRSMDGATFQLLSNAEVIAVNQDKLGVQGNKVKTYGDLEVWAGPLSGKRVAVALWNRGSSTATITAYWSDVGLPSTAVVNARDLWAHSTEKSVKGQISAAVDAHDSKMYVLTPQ
Procedure: as §1
Spaltung von 14-O-α-D-Galacto-hexo-pyranosyl-doxorubicin (Verbindung 10) durch Kaffebohnen-α-Galactosidase Die Ausgangsverbindung wurde unter den gleichen wie in Beispiel 11 beschriebenen Bedingungen in Gegenwart von 0.03 U/ml Kaffeebohnen-α-Galactosidase (Sigma) inkubiert. Die Halbwertszeit der Spaltung betrug in Gegenwart des Enzyms ca. 20 min.

COc1cccc2c1C(=O)c1c(O)c3c(c(O)c1C2=O)C[C@@](O)(C(=O)CO[C@H]1O[C@H](CO)[C@H](O)[C@H](O)[C@H]1O)C[C@@H]3O[C@H]1C[C@H](N)[C@H](O)[C@H](C)O1 [Verbindung 10, 14-O-α-D-Galactohexopyranosyl-doxorubicin]
Stability in enzymfreier Pufferlösung [1]: stabil | half-life [2]: ~54 h | half-life [3]: ~0.333 h
